Laboratory results published in ChEMBL document CHEMBL5042471, “Development and Application of Subtype-Selective Fluorescent Antagonists for the Study of the Human Adenosine A1 Receptor in Living Cells” (J Med Chem, 2021).
Active and inactive are the calls of the source. No cut-off for these calls is given here.

Legend:
[1] = molecular target: T1, Adenosine receptor A1 (Homo sapiens) (UniProt P30542); experiment: Binding affinity to SNAP-tagged-human A1 adenosine receptor expressed in HEK293 cells at 50 nM after 30 mins in presence of SLV320 by confocal microscopy method; type: cell-based
T1 sequence (whole entry): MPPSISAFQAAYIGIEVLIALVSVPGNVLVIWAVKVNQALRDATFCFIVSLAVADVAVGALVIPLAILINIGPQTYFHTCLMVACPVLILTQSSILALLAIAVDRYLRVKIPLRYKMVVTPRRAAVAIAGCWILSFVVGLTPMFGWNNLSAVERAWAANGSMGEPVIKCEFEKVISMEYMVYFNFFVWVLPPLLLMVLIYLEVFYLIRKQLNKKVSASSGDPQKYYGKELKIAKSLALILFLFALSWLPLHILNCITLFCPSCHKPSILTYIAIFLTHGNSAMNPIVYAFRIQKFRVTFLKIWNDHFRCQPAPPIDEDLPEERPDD

[2] = molecular target: T1, Adenosine receptor A1 (Homo sapiens); experiment: Binding affinity to NLuc human A1 adenosine receptor expressed in HEK293-A cells assessed as maximal binding capacity in presence of 1 uM SLV320 by NanoBRET binding assay; type: cell-based; settings: filed as antagonist
[3] = molecular target: T2, Adenosine receptor A3 (Homo sapiens, UniProt P0DMS8); experiment: Binding affinity to NLuc human A3 adenosine receptor expressed in HEK293-A cells in presence of 1 uM MRS1220 by NanoBRET binding assay; type: cell-based
T2 sequence (P0DMS8 whole entry): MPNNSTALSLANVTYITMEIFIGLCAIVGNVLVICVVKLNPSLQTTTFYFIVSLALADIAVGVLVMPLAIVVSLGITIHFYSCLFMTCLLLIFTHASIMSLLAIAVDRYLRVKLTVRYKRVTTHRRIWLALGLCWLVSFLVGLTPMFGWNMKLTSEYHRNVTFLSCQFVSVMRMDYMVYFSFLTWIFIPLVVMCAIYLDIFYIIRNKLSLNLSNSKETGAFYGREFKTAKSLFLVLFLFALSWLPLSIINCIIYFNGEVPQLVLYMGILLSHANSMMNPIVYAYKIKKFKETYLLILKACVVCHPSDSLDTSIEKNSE

[4] = molecular target: T1, Adenosine receptor A1 (Homo sapiens); experiment: Antagonist activity at human A1 adenosine receptor expressed in Flp-In-CHO cells assessed as reduction in NECA-mediated inhibition of forskolin stimulated cAMP accumulation by cAMP assay; type: functional, cell-based; settings: filed as antagonist
[5] = molecular target: T3, Adenosine receptor A1 (Homo sapiens, UniProt P30542); experiment: Binding affinity to NanoLuc human A1 adenosine receptor expressed in HEK293-A cells in prescence of SLV320 by NanoBRET competitive binding assay; type: cell-based
T3 sequence (P30542 whole entry): T1 sequence (whole entry)

[6] = molecular target: T3, Adenosine receptor A1; experiment: Binding affinity to NanoLuc human A1 adenosine receptor expressed in HEK293-A cells in prescence of DPCPX by NanoBRET competitive binding assay; type: cell-based
[7] = molecular target: T3, Adenosine receptor A1; experiment: Binding affinity to NLuc human A1 adenosine receptor expressed in HEK293-A cells in presence of 1 uM SLV320 by NanoBRET binding assay; type: cell-based
[8] = molecular target: T4, Adenosine receptor A2b (Homo sapiens, UniProt P29275); experiment: Binding affinity to NLuc human A2B adenosine receptor expressed in HEK293-A cells in presence of 1 uM PSB603 by NanoBRET binding assay; type: cell-based
T4 sequence (P29275 whole entry): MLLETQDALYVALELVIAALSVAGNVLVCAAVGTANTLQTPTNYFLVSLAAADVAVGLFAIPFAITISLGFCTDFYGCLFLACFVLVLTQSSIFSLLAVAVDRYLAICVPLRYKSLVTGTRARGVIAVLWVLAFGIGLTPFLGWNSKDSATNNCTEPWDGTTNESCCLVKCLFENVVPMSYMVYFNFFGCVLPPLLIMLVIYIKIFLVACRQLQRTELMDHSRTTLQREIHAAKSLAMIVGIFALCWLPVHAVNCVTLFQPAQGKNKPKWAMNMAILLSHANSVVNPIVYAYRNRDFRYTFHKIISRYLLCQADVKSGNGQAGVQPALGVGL

[9] = molecular target: T1, Adenosine receptor A1 (Homo sapiens); experiment: Binding affinity to NanoLuc-human A1 adenosine receptor expressed in HEK293-A cells assessed as binding constant (kon) by NanoBRET competitive binding assay; type: cell-based; settings: filed as antagonist
[10] = molecular target: T1, Adenosine receptor A1 (Homo sapiens); experiment: Binding affinity to NanoLuc-human A1 adenosine receptor expressed in HEK293-A cells assessed as binding constant (koff) by NanoBRET competitive binding assay; type: cell-based; settings: filed as antagonist
[11] = molecular target: T5, Adenosine receptor A2a (Homo sapiens, UniProt P29274); experiment: Binding affinity to NLuc human A2A adenosine receptor expressed in HEK293-A cells in presence of 1 uM ZM241385 by NanoBRET binding assay; type: cell-based
[12] = molecular target: T3, Adenosine receptor A1; experiment: Binding affinity to NanoLuc-human A1 adenosine receptor expressed in HEK293-A cells assessed as kinetic dissociation constant by NanoBRET competitive binding assay; type: cell-based
[13] = molecular target: T3, Adenosine receptor A1; experiment: Displacement of [3H]DPCPX from human A1 adenosine receptor expressed in Flp-In-CHO cells by radioligand competitive binding assay; type: cell-based
[14] = molecular target: T1, Adenosine receptor A1 (Homo sapiens); experiment: Binding affinity to SNAP-tagged-human A1 adenosine receptor expressed in HEK293 cells assessed as red fluorescent spot in plasma membrane pre-incubated with 10 uM SLV320 by microscopy based TIRF assay; type: cell membranes
[15] = molecular target: T3, Adenosine receptor A1; experiment: Binding affinity to NanoLuc human A1 adenosine receptor expressed in HEK293-A cells in prescence of NECA by NanoBRET competitive binding assay; type: cell-based
[16] = molecular target: T2, Adenosine receptor A3; experiment: Agonist activity at A3 adenosine receptor (unknown origin); type: functional
[17] = molecular target: T6, Adenosine receptor A2b (Homo sapiens) (UniProt P29275); experiment: Binding affinity to NLuc human A2B adenosine receptor expressed in HEK293-A cells assessed as maximal binding capacity in presence of 1 uM PSB603 by NanoBRET binding assay; type: cell-based; settings: filed as antagonist
T6 sequence (whole entry): T4 sequence (P29275 whole entry)

[18] = molecular target: T7, Adenosine receptor A3 (Homo sapiens) (UniProt P0DMS8); experiment: Binding affinity to NLuc human A3 adenosine receptor expressed in HEK293-A cells assessed as maximal binding capacity in presence of 1 uM MRS1220 by NanoBRET binding assay; type: cell-based; settings: filed as antagonist
T7 sequence (whole entry): T2 sequence (P0DMS8 whole entry)

[19] = molecular target: T1, Adenosine receptor A1 (Homo sapiens); experiment: Binding affinity to SNAP-tagged-human A1 adenosine receptor expressed in HEK293 cells at 10 nM after 30 mins in presence of SLV320 by confocal microscopy method; type: cell-based
[20] = molecular target: T5, Adenosine receptor A2a; experiment: Binding affinity to NLuc human A2A adenosine receptor expressed in HEK293-A cells assessed as maximal binding capacity in presence of 1 uM ZM241385 by NanoBRET binding assay; type: cell-based; settings: filed as antagonist
[21] = molecular target: T3, Adenosine receptor A1; experiment: Binding affinity to N-terminal NLuc tagged human A1 adenosine receptor expressed in Flp-In-CHO cells by competitive binding assay; type: cell-based
[22] = molecular target: T8, Adenosine receptor A1 (Rattus norvegicus, UniProt P25099); experiment: Binding affinity to N-terminal NLuc tagged rat A1 adenosine receptor expressed in Flp-In-CHO cells by competitive binding assay; type: cell-based
T8 sequence (P25099 whole entry): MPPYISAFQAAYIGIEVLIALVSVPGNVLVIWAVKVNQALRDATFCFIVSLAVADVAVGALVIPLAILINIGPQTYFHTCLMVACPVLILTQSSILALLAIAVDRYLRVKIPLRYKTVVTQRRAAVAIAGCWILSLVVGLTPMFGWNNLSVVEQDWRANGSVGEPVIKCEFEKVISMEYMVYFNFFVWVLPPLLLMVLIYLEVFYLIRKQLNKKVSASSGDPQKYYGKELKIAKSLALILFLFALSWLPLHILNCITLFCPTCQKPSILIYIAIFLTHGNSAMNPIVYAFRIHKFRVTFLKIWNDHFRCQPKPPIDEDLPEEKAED

[23] = molecular target: T1, Adenosine receptor A1 (Homo sapiens); experiment: Binding affinity to SNAP-tagged-human A1 adenosine receptor expressed in HEK293 cells at 5 nM after 30 mins in presence of SLV320 by confocal microscopy method; type: cell-based

T5 sequence (P29274 whole entry): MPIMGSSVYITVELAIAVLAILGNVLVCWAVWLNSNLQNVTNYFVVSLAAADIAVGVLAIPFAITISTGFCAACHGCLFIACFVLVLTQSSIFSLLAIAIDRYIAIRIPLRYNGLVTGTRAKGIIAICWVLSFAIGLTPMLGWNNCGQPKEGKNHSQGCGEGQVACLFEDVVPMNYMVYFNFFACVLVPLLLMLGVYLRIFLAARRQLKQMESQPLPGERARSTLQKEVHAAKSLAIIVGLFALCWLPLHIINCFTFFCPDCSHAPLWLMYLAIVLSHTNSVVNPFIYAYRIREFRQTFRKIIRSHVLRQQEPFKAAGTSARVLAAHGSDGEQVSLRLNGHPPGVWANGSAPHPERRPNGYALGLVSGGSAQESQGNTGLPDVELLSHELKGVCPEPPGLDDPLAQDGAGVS

SMILES	Bmax [2]	Kd [3] [nM]	pKb [4]	Kd [7] [nM]	Kd [8] [nM]	K [9]	K [10] [min⁻¹]	Kd [11] [nM]	Kd [12] [nM]	Ki [13] [nM]	also measured
CCCn1c(=O)c2[nH]c(C34CCC(C(=O)NCCNC(=O)CCNC(=O)CCNC(=O)CCCCC[N+]5=C(/C=C/C=C/C=C6/N(C)c7ccc(S(=O)(=O)O)cc7C6(C)C)C(C)(C)c6cc(S(=O)(=O)[O-])ccc65)(CC3)CC4)nc2n(CCC)c1=O	0.03	> 1000	7.12	44.7	> 1000	0.86 10^6/M/min	0.117	> 1000	138	200	Activity [1]: inactive; Ki [5]: 0.708 nM; Ki [6]: 7.41 nM; Activity [14]: inactive; Ki [15]: 398 nM
CCCn1c(=O)c2[nH]c(C34CCC(CCC(=O)NCCNC(=O)CCNC(=O)CCNC(=O)OC(C)(C)C)(CC3)CC4)nc2n(CCC)c1=O										7.76	
CCCn1c(=O)c2[nH]c(C34CCC(C(=O)NCCCNC(=O)COCCOCCNC(=O)OC(C)(C)C)(CC3)CC4)nc2n(CCC)c1=O										22.4	
CCNC(=O)[C@H]1O[C@@H](n2cnc3c(NCCCCNC(=O)CNC(=O)[C@@H](C)NC(=O)[C@@H](C)NC(=O)CCCCCNC(=O)COc4ccc(/C=C/C5=[N+]6C(=Cc7ccc(-c8cccs8)n7[B-]6(F)F)C=C5)cc4)ncnc32)[C@H](O)[C@@H]1O											EC50 [16]: 3.31 nM
CCCn1c(=O)c2[nH]c(C34CCC(CCC(=O)NCCNC(=O)COCCOCCNC(=O)OC(C)(C)C)(CC3)CC4)nc2n(CCC)c1=O										13.2	
CCCn1c(=O)c2[nH]c(C34CC5CC(CC(C5)C3)C4)nc2n(CCCNC(=O)c2ccc(C(=O)NCCNC(=O)CCNC(=O)CCCCCNC(=O)COc3ccc(/C=C/C4=[N+]5C(=Cc6ccc(-c7cccs7)n6[B-]5(F)F)C=C4)cc3)cc2)c1=O	0.019	58.9	8.72	3.16	55	3.6 10^6/M/min	0.046	50.1	13.2	9.77	Bmax [17]: 0.004; Bmax [18]: 0.001; Ki [5]: 1.41 nM; Ki [6]: 20.9 nM; Activity [19]: inactive; Bmax [20]: 0.003; Ki [15]: 1100 nM
CCCn1c(=O)c2[nH]c(C34CCC(C(=O)NCCCNC(=O)CCNC(=O)CCNC(=O)OC(C)(C)C)(CC3)CC4)nc2n(CCC)c1=O										12.9	
CCCn1c(=O)c2[nH]c(C34CCC(C(=O)NCCCNC(=O)COCCNC(=O)OC(C)(C)C)(CC3)CC4)nc2n(CCC)c1=O										16.2	
CCCn1c(=O)c2[nH]c(-c3ccc(OCC(=O)NCCNC(=O)CCNC(=O)CCCCNC(=O)CCCCNC(=O)COc4ccc(/C=C/C5=[N+]6C(=Cc7ccc(-c8cccs8)n7[B-]6(F)F)C=C5)cc4)cc3)nc2n(CCC)c1=O											Kd [21]: 33.9 nM; Kd [22]: 35.5 nM
CCCn1c(=O)c2[nH]c(C34CCC(C(=O)NCCNC(=O)CCNC(=O)CCNC(=O)CCCCCNC(=O)COc5ccc(/C=C/C6=[N+]7C(=Cc8ccc(-c9cccs9)n8[B-]7(F)F)C=C6)cc5)(CC3)CC4)nc2n(CCC)c1=O	0.018	135	9.75	1.17	7.76	17.9 10^6/M/min	0.054	28.2	3.09	0.288	Bmax [17]: 0.016; Bmax [18]: 0.012; Activity [23]: inactive; Bmax [20]: 0.035
